According to ChEMBL document CHEMBL1135338, “Protease inhibitors: synthesis of matrix metalloproteinase and bacterial collagenase inhibitors incorporating 5-amino-2-mercapto-1,3,4-thiadiazole zinc binding functions” (Bioorg Med Chem Lett, 2002):

What follows are molecules tested against Matrix metalloproteinase-9 (Homo sapiens, UniProt P14780) (assay: Inhibition of human matrix metalloprotease-9).
Matrix metalloproteinase-9, sequence (P14780 whole entry): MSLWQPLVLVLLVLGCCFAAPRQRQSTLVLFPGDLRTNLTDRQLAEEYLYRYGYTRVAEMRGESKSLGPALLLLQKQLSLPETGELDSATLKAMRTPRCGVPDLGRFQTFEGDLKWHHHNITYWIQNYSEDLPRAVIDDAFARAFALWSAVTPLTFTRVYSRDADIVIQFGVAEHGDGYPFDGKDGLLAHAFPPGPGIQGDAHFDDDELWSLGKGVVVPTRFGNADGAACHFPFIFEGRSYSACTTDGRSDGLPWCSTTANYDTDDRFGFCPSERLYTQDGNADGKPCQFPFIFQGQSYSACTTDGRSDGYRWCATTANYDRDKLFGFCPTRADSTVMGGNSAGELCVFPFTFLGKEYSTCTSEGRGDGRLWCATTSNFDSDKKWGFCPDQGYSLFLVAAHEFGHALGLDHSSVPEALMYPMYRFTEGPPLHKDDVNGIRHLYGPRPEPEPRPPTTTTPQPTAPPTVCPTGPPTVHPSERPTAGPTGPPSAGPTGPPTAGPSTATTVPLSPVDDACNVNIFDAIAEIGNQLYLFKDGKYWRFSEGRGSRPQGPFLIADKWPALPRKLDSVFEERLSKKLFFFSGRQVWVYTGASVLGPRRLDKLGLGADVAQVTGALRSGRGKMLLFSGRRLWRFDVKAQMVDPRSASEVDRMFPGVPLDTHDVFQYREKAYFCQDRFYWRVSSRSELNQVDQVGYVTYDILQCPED

| Structure (SMILES) | Ki |
| --- | --- |
| C[C@H](NC(=O)[C@H](Cc1ccccc1)NS(=O)(=O)c1ccc(Br)cc1)C(=O)Nc1n[nH]c(=S)s1 | 21 µM |
| C[C@H](NC(=O)[C@H](Cc1ccccc1)NS(=O)(=O)c1cccc([N+](=O)[O-])c1)C(=O)Nc1n[nH]c(=S)s1 | 18 µM |
| C[C@H](NC(=O)[C@H](Cc1ccccc1)NS(=O)(=O)c1cccc2ccccc12)C(=O)Nc1n[nH]c(=S)s1 | 44 µM |
| C[C@H](NC(=O)[C@H](Cc1ccccc1)NS(=O)(=O)CC12CCC(CC1=O)C2(C)C)C(=O)Nc1n[nH]c(=S)s1 (stereo partly specified) | 40 µM |
| C[C@H](NC(=O)[C@H](Cc1ccccc1)NC(=O)NS(=O)(=O)c1ccccc1)C(=O)Nc1n[nH]c(=S)s1 | 4 µM |
| Cc1ccc(S(=O)(=O)NC(=O)N[C@@H](Cc2ccccc2)C(=O)N[C@@H](C)C(=O)Nc2n[nH]c(=S)s2)cc1 | 5 µM |
| C[C@H](NC(=O)[C@H](Cc1ccccc1)NS(=O)(=O)c1c(F)c(F)c(F)c(F)c1F)C(=O)Nc1n[nH]c(=S)s1 | 2 µM |
| Cc1ccccc1S(=O)(=O)NC(=O)N[C@@H](Cc1ccccc1)C(=O)N[C@@H](C)C(=O)Nc1n[nH]c(=S)s1 | 7 µM |
| C[C@H](NC(=O)[C@H](Cc1ccccc1)NS(=O)(=O)c1cccc2c(N(C)C)cccc12)C(=O)Nc1n[nH]c(=S)s1 | 50 µM |
| Cc1ccc(S(=O)(=O)N[C@@H](Cc2ccccc2)C(=O)N[C@@H](C)C(=O)Nc2n[nH]c(=S)s2)cc1 | 20 µM |
| Cc1cc(C)c(S(=O)(=O)N[C@@H](Cc2ccccc2)C(=O)N[C@@H](C)C(=O)Nc2n[nH]c(=S)s2)c(C)c1 | 29 µM |

The molecules below were run against T1, Interstitial collagenase (Homo sapiens, UniProt P03956) (assay: Inhibition of human matrix metalloprotease-1).
T1 sequence (P03956 whole entry): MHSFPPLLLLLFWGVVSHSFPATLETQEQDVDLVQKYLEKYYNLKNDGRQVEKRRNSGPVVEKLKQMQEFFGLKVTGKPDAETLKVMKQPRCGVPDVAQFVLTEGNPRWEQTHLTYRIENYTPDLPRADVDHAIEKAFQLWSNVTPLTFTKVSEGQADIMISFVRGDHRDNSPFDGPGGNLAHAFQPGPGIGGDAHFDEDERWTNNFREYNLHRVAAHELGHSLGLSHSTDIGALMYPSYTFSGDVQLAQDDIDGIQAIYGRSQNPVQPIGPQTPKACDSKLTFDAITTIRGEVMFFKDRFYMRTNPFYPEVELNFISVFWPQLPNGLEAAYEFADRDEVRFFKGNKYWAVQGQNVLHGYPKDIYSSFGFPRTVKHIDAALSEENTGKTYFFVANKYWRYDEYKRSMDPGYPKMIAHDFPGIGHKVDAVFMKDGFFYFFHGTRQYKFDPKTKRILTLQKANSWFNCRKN

| Structure (SMILES) | Ki |
| --- | --- |
| C[C@H](NC(=O)[C@H](Cc1ccccc1)NS(=O)(=O)c1ccc(Br)cc1)C(=O)Nc1n[nH]c(=S)s1 | 24 µM |
| C[C@H](NC(=O)[C@H](Cc1ccccc1)NS(=O)(=O)c1cccc([N+](=O)[O-])c1)C(=O)Nc1n[nH]c(=S)s1 | 18 µM |
| C[C@H](NC(=O)[C@H](Cc1ccccc1)NS(=O)(=O)c1cccc2ccccc12)C(=O)Nc1n[nH]c(=S)s1 | 80 µM |
| C[C@H](NC(=O)[C@H](Cc1ccccc1)NS(=O)(=O)CC12CCC(CC1=O)C2(C)C)C(=O)Nc1n[nH]c(=S)s1 (stereo partly specified) | 69 µM |
| C[C@H](NC(=O)[C@H](Cc1ccccc1)NC(=O)NS(=O)(=O)c1ccccc1)C(=O)Nc1n[nH]c(=S)s1 | 19 µM |
| Cc1ccc(S(=O)(=O)NC(=O)N[C@@H](Cc2ccccc2)C(=O)N[C@@H](C)C(=O)Nc2n[nH]c(=S)s2)cc1 | 15 µM |
| Cc1ccccc1S(=O)(=O)NC(=O)N[C@@H](Cc1ccccc1)C(=O)N[C@@H](C)C(=O)Nc1n[nH]c(=S)s1 | 19 µM |
| C[C@H](NC(=O)[C@H](Cc1ccccc1)NS(=O)(=O)c1cccc2c(N(C)C)cccc12)C(=O)Nc1n[nH]c(=S)s1 | 87 µM |
| Cc1ccc(S(=O)(=O)N[C@@H](Cc2ccccc2)C(=O)N[C@@H](C)C(=O)Nc2n[nH]c(=S)s2)cc1 | 30 µM |
| Cc1cc(C)c(S(=O)(=O)N[C@@H](Cc2ccccc2)C(=O)N[C@@H](C)C(=O)Nc2n[nH]c(=S)s2)c(C)c1 | 33 µM |

The molecules below were run against T2, 72 kDa type IV collagenase (Homo sapiens, UniProt P08253) (assay: Inhibition of human Matrix metalloprotease-2).
T2 sequence (P08253 whole entry): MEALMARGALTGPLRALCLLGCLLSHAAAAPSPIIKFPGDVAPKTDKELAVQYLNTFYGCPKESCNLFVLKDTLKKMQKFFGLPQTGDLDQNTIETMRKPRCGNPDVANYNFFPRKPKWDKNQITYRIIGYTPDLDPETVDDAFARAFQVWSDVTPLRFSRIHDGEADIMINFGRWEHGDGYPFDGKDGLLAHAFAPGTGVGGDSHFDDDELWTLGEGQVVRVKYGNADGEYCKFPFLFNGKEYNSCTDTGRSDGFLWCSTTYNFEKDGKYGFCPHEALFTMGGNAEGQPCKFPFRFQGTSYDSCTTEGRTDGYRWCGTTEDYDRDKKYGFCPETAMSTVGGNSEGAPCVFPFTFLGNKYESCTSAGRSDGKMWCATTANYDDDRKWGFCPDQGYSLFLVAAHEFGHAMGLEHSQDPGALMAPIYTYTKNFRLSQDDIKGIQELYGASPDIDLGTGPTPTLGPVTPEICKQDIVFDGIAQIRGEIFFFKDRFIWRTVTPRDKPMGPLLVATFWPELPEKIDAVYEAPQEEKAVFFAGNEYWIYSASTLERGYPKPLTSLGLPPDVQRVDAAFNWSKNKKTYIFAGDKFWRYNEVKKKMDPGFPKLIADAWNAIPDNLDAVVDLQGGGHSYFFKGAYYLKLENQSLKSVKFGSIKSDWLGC

| Structure (SMILES) | Ki |
| --- | --- |
| CC(C)C(NS(=O)(=O)c1ccc(-c2ccc(Cl)cc2)cc1)C(=O)O (stereo unspecified) | 2 µM |
| O=C(O)C(Cc1ccccc1)NS(=O)(=O)c1ccc(-c2ccc(Br)cc2)cc1 (stereo unspecified) | 2 µM |
| CC(C)C(NS(=O)(=O)c1ccc(-c2ccccc2)cc1)C(=O)O (stereo unspecified) | 2 µM |
| O=C(O)C(Cc1ccccc1)NS(=O)(=O)c1ccc(-c2ccccc2)cc1 (stereo unspecified) | 2 µM |
| O=C(O)C(Cc1ccccc1)NS(=O)(=O)c1ccc(-c2ccc(Cl)cc2)cc1 (stereo unspecified) | 2 µM |

What follows are molecules tested against T2, 72 kDa type IV collagenase (assay: Inhibition of human matrix metalloprotease-2).

| Structure (SMILES) | Ki |
| --- | --- |
| C[C@H](NC(=O)[C@H](Cc1ccccc1)NS(=O)(=O)c1ccc(Br)cc1)C(=O)Nc1n[nH]c(=S)s1 | 15 µM |
| C[C@H](NC(=O)[C@H](Cc1ccccc1)NS(=O)(=O)c1cccc([N+](=O)[O-])c1)C(=O)Nc1n[nH]c(=S)s1 | 12 µM |
| C[C@H](NC(=O)[C@H](Cc1ccccc1)NS(=O)(=O)c1cccc2ccccc12)C(=O)Nc1n[nH]c(=S)s1 | 36 µM |
| C[C@H](NC(=O)[C@H](Cc1ccccc1)NS(=O)(=O)CC12CCC(CC1=O)C2(C)C)C(=O)Nc1n[nH]c(=S)s1 (stereo partly specified) | 35 µM |
| C[C@H](NC(=O)[C@H](Cc1ccccc1)NC(=O)NS(=O)(=O)c1ccccc1)C(=O)Nc1n[nH]c(=S)s1 | 5 µM |
| Cc1ccc(S(=O)(=O)NC(=O)N[C@@H](Cc2ccccc2)C(=O)N[C@@H](C)C(=O)Nc2n[nH]c(=S)s2)cc1 | 7 µM |
| C[C@H](NC(=O)[C@H](Cc1ccccc1)NS(=O)(=O)c1c(F)c(F)c(F)c(F)c1F)C(=O)Nc1n[nH]c(=S)s1 | 6 µM |
| Cc1ccccc1S(=O)(=O)NC(=O)N[C@@H](Cc1ccccc1)C(=O)N[C@@H](C)C(=O)Nc1n[nH]c(=S)s1 | 8 µM |
| C[C@H](NC(=O)[C@H](Cc1ccccc1)NS(=O)(=O)c1cccc2c(N(C)C)cccc12)C(=O)Nc1n[nH]c(=S)s1 | 40 µM |
| Cc1ccc(S(=O)(=O)N[C@@H](Cc2ccccc2)C(=O)N[C@@H](C)C(=O)Nc2n[nH]c(=S)s2)cc1 | 20 µM |
| Cc1cc(C)c(S(=O)(=O)N[C@@H](Cc2ccccc2)C(=O)N[C@@H](C)C(=O)Nc2n[nH]c(=S)s2)c(C)c1 | 24 µM |

Each molecule was assayed against Stromelysin-1 (Homo sapiens, UniProt P08254) (assay: Inhibition of human Matrix metalloprotease-3).
Stromelysin-1, sequence (P08254 whole entry): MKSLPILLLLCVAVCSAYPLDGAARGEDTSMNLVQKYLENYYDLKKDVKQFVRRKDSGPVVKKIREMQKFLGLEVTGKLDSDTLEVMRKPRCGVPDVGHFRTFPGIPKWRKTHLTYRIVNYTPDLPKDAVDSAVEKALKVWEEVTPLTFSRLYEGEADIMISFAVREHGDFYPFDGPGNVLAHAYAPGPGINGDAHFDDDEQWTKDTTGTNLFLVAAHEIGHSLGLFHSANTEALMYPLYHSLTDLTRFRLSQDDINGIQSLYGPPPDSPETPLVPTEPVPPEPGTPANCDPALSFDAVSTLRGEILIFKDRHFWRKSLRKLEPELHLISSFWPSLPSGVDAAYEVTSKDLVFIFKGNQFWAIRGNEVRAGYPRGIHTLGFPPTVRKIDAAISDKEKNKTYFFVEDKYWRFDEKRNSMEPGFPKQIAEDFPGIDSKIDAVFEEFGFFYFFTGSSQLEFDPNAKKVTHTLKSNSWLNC

| Structure (SMILES) | Ki |
| --- | --- |
| O=C(O)[C@H](Cc1c[nH]c2ccccc12)NS(=O)(=O)c1ccc(N2CCC(c3ccccc3)CC2)cc1 | 0.019 µM |

These molecules were tested against Neutrophil collagenase (Homo sapiens, UniProt P22894) (assay: Inhibition of human matrix metalloprotease-8).
Neutrophil collagenase, sequence (P22894 whole entry): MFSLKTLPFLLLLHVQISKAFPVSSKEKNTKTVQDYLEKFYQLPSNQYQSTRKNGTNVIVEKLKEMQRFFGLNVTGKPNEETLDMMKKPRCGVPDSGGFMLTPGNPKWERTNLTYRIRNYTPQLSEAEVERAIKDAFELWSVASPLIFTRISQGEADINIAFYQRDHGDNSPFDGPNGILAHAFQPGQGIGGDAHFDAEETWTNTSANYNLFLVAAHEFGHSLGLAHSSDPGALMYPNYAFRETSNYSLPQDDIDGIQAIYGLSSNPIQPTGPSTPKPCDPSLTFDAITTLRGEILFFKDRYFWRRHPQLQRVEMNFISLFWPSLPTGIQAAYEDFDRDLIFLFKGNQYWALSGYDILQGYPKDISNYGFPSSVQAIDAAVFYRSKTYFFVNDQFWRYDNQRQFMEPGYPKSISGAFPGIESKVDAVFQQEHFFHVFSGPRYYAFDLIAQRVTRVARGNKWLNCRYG

| Structure (SMILES) | Ki |
| --- | --- |
| C[C@H](NC(=O)[C@H](Cc1ccccc1)NS(=O)(=O)c1cccc([N+](=O)[O-])c1)C(=O)Nc1n[nH]c(=S)s1 | 13 µM |
| C[C@H](NC(=O)[C@H](Cc1ccccc1)NS(=O)(=O)CC12CCC(CC1=O)C2(C)C)C(=O)Nc1n[nH]c(=S)s1 (stereo partly specified) | 34 µM |
| Cc1ccc(S(=O)(=O)NC(=O)N[C@@H](Cc2ccccc2)C(=O)N[C@@H](C)C(=O)Nc2n[nH]c(=S)s2)cc1 | 5 µM |
| C[C@H](NC(=O)[C@H](Cc1ccccc1)NS(=O)(=O)c1c(F)c(F)c(F)c(F)c1F)C(=O)Nc1n[nH]c(=S)s1 | 1 µM |
| Cc1ccccc1S(=O)(=O)NC(=O)N[C@@H](Cc1ccccc1)C(=O)N[C@@H](C)C(=O)Nc1n[nH]c(=S)s1 | 6 µM |
| C[C@H](NC(=O)[C@H](Cc1ccccc1)NS(=O)(=O)c1cccc2c(N(C)C)cccc12)C(=O)Nc1n[nH]c(=S)s1 | 48 µM |
| Cc1ccc(S(=O)(=O)N[C@@H](Cc2ccccc2)C(=O)N[C@@H](C)C(=O)Nc2n[nH]c(=S)s2)cc1 | 23 µM |
| Cc1cc(C)c(S(=O)(=O)N[C@@H](Cc2ccccc2)C(=O)N[C@@H](C)C(=O)Nc2n[nH]c(=S)s2)c(C)c1 | 25 µM |
